Results on 27 molecules are retold here after ChEMBL document CHEMBL3045660, “Regioselective synthesis of fraxinellone-based hydrazone derivatives as insecticidal agents” (2012).

Holding throughout (format): functional
Experiment [1] relates to Mythimna separata. The experiment is described as follows: Insecticidal activity against pre-third-instar larvae of Mythimna separata (Oriental armyworm) in compound treated fresh corn leaves assessed as corrected mortality at 1 mg/ml measured after 10 days by leaf-dipping method. As to conditions: 240 h.
Experiment [2] deals with Mythimna separata. The experiment is described as follows: Insecticidal activity against pre-third-instar larvae of Mythimna separata (Oriental armyworm) in compound treated fresh corn leaves assessed as corrected mortality at 1 mg/ml measured after 35 days by leaf-dipping method. As to conditions: 840 h.
For experiment [3], the system named is Mythimna separata. The experiment is described as follows: Insecticidal activity against pre-third-instar larvae of Mythimna separata (Oriental armyworm) in compound treated fresh corn leaves assessed as corrected mortality at 1 mg/ml measured after 20 days by leaf-dipping method. As to conditions: 480 h.

As for `C[C@@]12CCCC(/C=N/Nc3ccccc3[N+](=O)[O-])=C1C(=O)O[C@H]2c1ccoc1`, the mortality at 1000 µg/mL came out at 13.8% with Mythimna separata [1], 50% with Mythimna separata [2] and 37% with Mythimna separata [3].

As to `C[C@@]12CCCC(/C=N/NC(=O)c3ccccc3)=C1C(=O)O[C@H]2c1ccoc1`, the results for the mortality at 1000 µg/mL with Mythimna separata [1], with Mythimna separata [2] and with Mythimna separata [3] were 58.6%, 65.4% and 55.6%, respectively.

Take `CC1=C2C(=O)O[C@@H](c3ccoc3)[C@]2(C)CC/C1=N\NC(=O)c1cccc(Cl)c1`: the mortality at 1000 µg/mL came to 58.6% with Mythimna separata [1], 69.2% in the experiment on Mythimna separata [2] and 59.3% in the experiment with Mythimna separata [3].

As to `CC1=C2C(=O)O[C@@H](c3ccoc3)[C@]2(C)CC/C1=N\NC(=O)c1ccccc1`, the mortality at 1000 µg/mL in the experiment on Mythimna separata [1] was 58.6%; with Mythimna separata [2], 76.9%; with Mythimna separata [3], 63%.

In the case of `CC1=C2C(=O)O[C@@H](c3ccoc3)[C@]2(C)CCC1=O` [FRAXINELLONONE], the mortality at 1000 µg/mL in the experiment on Mythimna separata [1] worked out at 48.3%; in the experiment with Mythimna separata [2], 57.7%; in the experiment on Mythimna separata [3] it was 48.1%.

Regarding `CC1=C2C(=O)O[C@@H](c3ccoc3)[C@]2(C)CC/C1=N\NC(=O)c1ccncc1`, the values for the mortality at 1000 µg/mL in the experiment with Mythimna separata [1], in the experiment with Mythimna separata [2] and with Mythimna separata [3] were 24.1%, 50% and 33.3%, respectively.

`CC1=C2C(=O)O[C@@H](c3ccoc3)[C@]2(C)CC/C1=N\Nc1ccccc1`: the mortality at 1000 µg/mL came out at 10.3% with Mythimna separata [1], 46.2% in the experiment with Mythimna separata [2] and 22.2% in the experiment on Mythimna separata [3].

`CC1=C2C(=O)O[C@@H](c3ccoc3)[C@]2(C)CC/C1=N\Nc1ccc([N+](=O)[O-])cc1`: the mortality at 1000 µg/mL in the experiment on Mythimna separata [1] is 34.5%; in the experiment with Mythimna separata [2] it was 53.8%; with Mythimna separata [3] it was 40.7%.

On to `COc1ccc(C(=O)N/N=C/C2=C3C(=O)O[C@@H](c4ccoc4)[C@]3(C)CCC2)cc1`, for which the mortality at 1000 µg/mL in the experiment with Mythimna separata [1] amounted to 37.9%; with Mythimna separata [2] it was 50%; in the experiment with Mythimna separata [3], 44.4%.

`CC1=C2C(=O)O[C@@H](c3ccoc3)[C@]2(C)CC/C1=N\NC(=O)CC#N`: the mortality at 1000 µg/mL was 34.5% with Mythimna separata [1], 61.5% in the experiment on Mythimna separata [2] and 33.3% in the experiment with Mythimna separata [3].

In the case of `C[C@@]12CCCC(/C=N/NC(=O)c3ccc([N+](=O)[O-])cc3)=C1C(=O)O[C@H]2c1ccoc1`, the mortality at 1000 µg/mL in the experiment with Mythimna separata [1] stood at 37.9%; with Mythimna separata [2] it was 61.5%; with Mythimna separata [3], 48.1%.

As to `C[C@@]12CCCC(/C=N/NC(=O)c3ccc([N+](=O)[O-])cc3[N+](=O)[O-])=C1C(=O)O[C@H]2c1ccoc1`, the results for the mortality at 1000 µg/mL with Mythimna separata [1], with Mythimna separata [2] and with Mythimna separata [3] were 31%, 53.8% and 40.7%, respectively.

On to `C[C@@]12CCCC(/C=N/Nc3ccc([N+](=O)[O-])cc3)=C1C(=O)O[C@H]2c1ccoc1`, for which the mortality at 1000 µg/mL in the experiment on Mythimna separata [1] stood at 20.7%; in the experiment on Mythimna separata [2] it was 38.5%; in the experiment with Mythimna separata [3], 14.8%.

With `C[C@@]12CCCC(/C=N/Nc3c(F)c(F)cc(F)c3F)=C1C(=O)O[C@H]2c1ccoc1`, the mortality at 1000 µg/mL in the experiment with Mythimna separata [1] is 37.9%; with Mythimna separata [2], 61.5%; in the experiment on Mythimna separata [3], 40.7%.

In the case of `CC1=C2C(=O)O[C@@H](c3ccoc3)[C@]2(C)CC/C1=N\NC(=O)c1ccc([N+](=O)[O-])cc1`, the mortality at 1000 µg/mL with Mythimna separata [1] was determined as 58.6%; in the experiment on Mythimna separata [2], 65.4%; in the experiment with Mythimna separata [3], 63%.

Consider `CC1=C2C(=O)O[C@@H](c3ccoc3)[C@]2(C)CC/C1=N\Nc1ccccc1[N+](=O)[O-]`, for which the mortality at 1000 µg/mL in the experiment on Mythimna separata [1] is 24.1%; in the experiment on Mythimna separata [2] it was 46.2%; in the experiment on Mythimna separata [3], 33.3%.

As for `CC1=C2C(=O)O[C@@H](c3ccoc3)[C@]2(C)CCC1` [FRAXINELLONE], the mortality at 1000 µg/mL in the experiment on Mythimna separata [1] amounted to 41.4%; with Mythimna separata [2] it was 53.8%; in the experiment with Mythimna separata [3], 40.7%.

Turning to `C[C@@]12CCCC(/C=N/NC(=O)c3cccc(Cl)c3)=C1C(=O)O[C@H]2c1ccoc1`, the mortality at 1000 µg/mL worked out at 44.8% in the experiment with Mythimna separata [1], 53.8% in the experiment with Mythimna separata [2] and 40.7% in the experiment with Mythimna separata [3].

On to `C[C@@]12CCCC(/C=N/NC(=O)c3ccncc3)=C1C(=O)O[C@H]2c1ccoc1`, for which the mortality at 1000 µg/mL in the experiment with Mythimna separata [1] came to 55.2%; with Mythimna separata [2] it was 73.1%; in the experiment on Mythimna separata [3], 66.7%.

As to `C[C@@]12CCCC(C=O)=C1C(=O)O[C@H]2c1ccoc1` [3-FORMYLFRAXINELLONE], the figures for the mortality at 1000 µg/mL in the experiment with Mythimna separata [1], in the experiment on Mythimna separata [2] and in the experiment with Mythimna separata [3] were 17.2%, 34.6% and 25.9%, respectively.

As for `CC(=O)O[C@@H]1C[C@H](O)[C@@]23CO[C@@H](O)[C@]1(C)[C@@H]2C[C@@H](O)[C@]1(C)[C@@H]3C(=O)[C@H](OC(C)=O)[C@@]2(C)[C@H](c3ccoc3)C[C@H]3O[C@]321` [TOOSENDANIN], the mortality at 1000 µg/mL with Mythimna separata [1] came to 24.1%; in the experiment on Mythimna separata [2], 53.8%; in the experiment on Mythimna separata [3] it was 33.3%.

Take `CC1=C2C(=O)O[C@@H](c3ccoc3)[C@]2(C)CC/C1=N\Nc1c(F)c(F)cc(F)c1F`: the mortality at 1000 µg/mL in the experiment with Mythimna separata [1] worked out at 27.6%; in the experiment on Mythimna separata [2], 50%; in the experiment with Mythimna separata [3], 40.7%.

On to `Cc1cccc(C(=O)N/N=C/C2=C3C(=O)O[C@@H](c4ccoc4)[C@]3(C)CCC2)c1`, for which the mortality at 1000 µg/mL in the experiment on Mythimna separata [1] worked out at 41.4%; in the experiment on Mythimna separata [2], 53.8%; in the experiment with Mythimna separata [3] it was 44.4%.

For `C[C@@]12CCCC(/C=N/NC(=O)c3cccs3)=C1C(=O)O[C@H]2c1ccoc1`, the mortality at 1000 µg/mL in the experiment with Mythimna separata [1] amounted to 24.1%; with Mythimna separata [2] it was 34.6%; in the experiment on Mythimna separata [3], 29.6%.

For `C[C@@]12CCCC(/C=N/Nc3ccccc3)=C1C(=O)O[C@H]2c1ccoc1`, the mortality at 1000 µg/mL in the experiment with Mythimna separata [1] worked out at 27.6%; in the experiment on Mythimna separata [2] it was 53.8%; in the experiment on Mythimna separata [3], 44.4%.

With `CC1=C2C(=O)O[C@@H](c3ccoc3)[C@]2(C)CC/C1=N\NC(=O)c1cccs1`, the mortality at 1000 µg/mL is 20.7% with Mythimna separata [1], 38.5% in the experiment with Mythimna separata [2] and 29.6% with Mythimna separata [3].

Regarding `C[C@@]12CCCC(/C=N/NC(=O)CC#N)=C1C(=O)O[C@H]2c1ccoc1`, the mortality at 1000 µg/mL amounted to 55.2% with Mythimna separata [1], 69.2% in the experiment with Mythimna separata [2] and 66.7% in the experiment on Mythimna separata [3].

As usually defined, the mortality is the percentage killed.
